# How the values were obtained:
# [1] = system: SK-OV-3; experiment: In vitro cell experiment (MTT), SK-OV-3; format: cell-based; conditions: 72 h, human ovarian carcinoma cells (EGFR2 overexpressing)
# Experimental: (§1) Cells in logarithmic growth phase were seeded at a certain density in a 96-well plate (200 μL/well). The cells were allowed to grow for 24 h and subsequently treated with different concentrations of drugs (including a blank group and a control group) and incubated for 72 h at 37° C. Each concentration in a given experiment was tested in triplicate. After 72 h of exposure, 20 μL of the MTT labeling reagent was added to the medium (the final concentration of MTT was 0.5 mg/mL), and the cells were incubated for additional 4 h at 37° C. Following this process, 180 μL of the medium was removed and 130 μL of DMSO was added to each well, or the medium was completely removed and 150 μL of DMSO was added to each well. Then the plate was shaken and mixed in a micro-oscillator. Finally the optical density (OD) of each sample was measured in a micro-plate reader at 550 nm. Cell inhibition rate was calculated according to the following formula: […]
# (§2) According to cell inhibition rates, IC50 was calculated by LOGIT method. The experiments were repeated twice and the data was expressed as means±SD.
# [2] = system: 3T3swiss; experiment: In vitro cell experiment (MTT), 3T3swiss; format: cell-based; conditions: Fibroblast, 72 h, mouse fibroblasts (PDGFR overexpressing)
# Experimental: as §1, §2
# [3] = target: BTK (Homo sapiens, UniProt Q06187); experiment: In vitro enzyme experiment (ELISA), BTK; format: biochemical; conditions: Poly (Glu, Tyr)4:1 substrate, 5 μM ATP
# Experimental: BTK: Bruton tyrosine kinase
# (§3) ELISA: The enzyme plate was coated by enzyme reaction substrate (Poly (Glu, Tyr)4:1) at a density of 20 μg/ml. Then the enzyme, the sample and 5 μM ATP were mixed in the well to react. After the reaction, the substrate phosphorylation was detected by anti-phosphotyrosine monoclonal antibody (4G10). In the next step, the goat-anti-mouse IgG linking with horse radish peroxidase (HRP) and tetramethylbenzidine (TMB) were added sequentially in the well to evaluate the level of substrate phosphorylation by the degree of color depth. In the experiment, a blank group without tyrosine kinase and a control group with the corresponding concentration of DMSO were established. Finally, 50 μL/well of H2SO4 at a concentration of 0.18M was added in each well to stop the reaction. The optical density (OD) of each sample was measured in a micro-plate reader at 450 nm.
# (§4) The relative inhibition rate of the compound against tyrosine kinase protein was determined.
# (§5) According to the inhibition rates at different concentrations, IC50 was calculated by LOGIT method. The experiments were repeated three times, and the average of three IC50 values was the final index to evaluate the ability of inhibition.
# [4] = system: H292; experiment: In vitro cell experiment (MTT), H292; format: cell-based; conditions: NCI-H292, 72 h, human lung carcinoma cells (EGFR1 overexpressing)
# Experimental: as §1, §2
# [5] = target: PDGFRβ (Homo sapiens, UniProt P09619); experiment: In vitro enzyme experiment (ELISA), PDGFRβ; format: biochemical; conditions: Poly (Glu, Tyr)4:1 substrate, 5 μM ATP
# Experimental: PDGFRβ: Platelet-derived growth factor receptor β
# as §3, §4, §5
# [6] = system: PC-9; experiment: In vitro cell experiment (MTT), PC-9; format: cell-based; conditions: 72 h, human non-small-cell lung carcinoma cells (EGFR1 19 exon mutation)
# Experimental: as §1, §2
# [7] = system: A375; experiment: In vitro cell experiment (MTT), A375; format: cell-based; conditions: A-375, 72 h, human melanoma cells (KDR expressing)
# Experimental: as §1, §2
# [8] = Mouse maximum tolerated dose (MTD) experiment; conditions: in vivo, mice, oral, administered 7 days then observed 7 days
# Experimental: In the mouse MTD experiment, the mice were administrated with the present compounds.
# Healthy mice, having a small difference in body's weights, were chosen. The chosen mice were placed in different layers of cages according to their body's weights. In each layer, the mice were randomly divided into groups. In each group, there were three mice.
# The administration dosages were 1000, 500, 250, 125, 62.5 and 31.25 mg/kg respectively and each two dosages differed by a factor of 2. For each of administration dosages, three mice were allotted. The mice were administrated with the present compounds for 7 days and then observed for the next 7 days without the present compounds.
# The present compounds were orally administrated with the mice according to the administration dosage and the body weight.
# [9] = system: HCT116; experiment: In vitro cell experiment (MTT), HCT116; format: cell-based; conditions: HCT-116, 72 h, human colon carcinoma cells
# Experimental: as §1, §2
# [10] = system: A498; experiment: In vitro cell experiment (MTT), A498; format: cell-based; conditions: 72 h, human renal carcinoma cells
# Experimental: as §1, §2
# [11] = system: HUVEC; experiment: In vitro cell experiment (MTT), HUVEC; format: cell-based; conditions: 72 h, human umbilical vein endothelial cell (KDR overexpressing)
# Experimental: as §1, §2
# [12] = system: A431; experiment: In vitro cell experiment (MTT), A431; format: cell-based; conditions: A-431, 72 h, human epidermoid carcinoma (EGFR1 overexpressing)
# Experimental: as §1, §2
# [13] = system: SGC7901; experiment: In vitro cell experiment (MTT), SGC7901; format: cell-based; conditions: SGC-7901, 72 h, human gastric carcinoma cells
# Experimental: as §1, §2
# [14] = system: CFPAC-1; experiment: In vitro cell experiment (MTT), CFPAC-1; format: cell-based; conditions: 72 h, human pancreatic carcinoma cells
# Experimental: as §1, §2
# [15] = system: HT-29; experiment: In vitro cell experiment (MTT), HT-29; format: cell-based; conditions: 72 h, human colon carcinoma cells (expressing both c-KIT and PDGFR)
# Experimental: as §1, §2
# [16] = target: FLT-1 (Homo sapiens, UniProt P17948); experiment: In vitro enzyme experiment (ELISA), FLT-1; format: biochemical; conditions: Poly (Glu, Tyr)4:1 substrate, 5 μM ATP
# Chain of FLT-1 (P17948 27-1338): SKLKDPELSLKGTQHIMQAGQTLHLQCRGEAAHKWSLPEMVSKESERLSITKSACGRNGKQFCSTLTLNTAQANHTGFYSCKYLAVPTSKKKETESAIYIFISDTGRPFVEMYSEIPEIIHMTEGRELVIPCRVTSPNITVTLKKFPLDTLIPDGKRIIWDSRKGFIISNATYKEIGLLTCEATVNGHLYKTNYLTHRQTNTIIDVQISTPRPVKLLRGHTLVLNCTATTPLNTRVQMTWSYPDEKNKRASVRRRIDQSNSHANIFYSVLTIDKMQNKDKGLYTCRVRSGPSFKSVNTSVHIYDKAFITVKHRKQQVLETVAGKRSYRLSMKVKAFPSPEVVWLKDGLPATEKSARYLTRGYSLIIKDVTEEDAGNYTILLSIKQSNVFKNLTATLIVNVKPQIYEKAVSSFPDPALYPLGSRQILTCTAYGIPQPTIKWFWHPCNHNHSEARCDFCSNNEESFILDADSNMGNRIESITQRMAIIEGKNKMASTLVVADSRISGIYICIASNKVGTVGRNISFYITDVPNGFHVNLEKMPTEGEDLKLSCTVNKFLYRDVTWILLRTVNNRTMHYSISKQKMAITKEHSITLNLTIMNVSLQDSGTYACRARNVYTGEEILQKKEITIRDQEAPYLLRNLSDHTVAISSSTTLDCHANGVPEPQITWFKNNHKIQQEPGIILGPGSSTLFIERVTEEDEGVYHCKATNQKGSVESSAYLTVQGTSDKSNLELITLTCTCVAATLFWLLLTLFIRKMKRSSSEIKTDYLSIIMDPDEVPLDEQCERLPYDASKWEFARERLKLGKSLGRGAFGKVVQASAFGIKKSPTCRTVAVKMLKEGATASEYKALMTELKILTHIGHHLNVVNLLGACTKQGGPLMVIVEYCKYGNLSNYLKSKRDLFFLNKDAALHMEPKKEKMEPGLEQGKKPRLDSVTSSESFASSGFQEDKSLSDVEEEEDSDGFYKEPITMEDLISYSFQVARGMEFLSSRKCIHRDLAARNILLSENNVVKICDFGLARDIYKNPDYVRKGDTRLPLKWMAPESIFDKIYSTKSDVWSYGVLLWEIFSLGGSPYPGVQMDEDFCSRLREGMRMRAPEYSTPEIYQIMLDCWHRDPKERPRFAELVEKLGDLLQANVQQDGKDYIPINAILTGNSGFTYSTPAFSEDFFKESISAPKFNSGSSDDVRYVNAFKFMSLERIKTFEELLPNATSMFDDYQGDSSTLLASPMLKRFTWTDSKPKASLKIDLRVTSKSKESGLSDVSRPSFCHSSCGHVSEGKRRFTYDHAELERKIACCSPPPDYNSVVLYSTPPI
# Experimental: FLT-1: Human vascular endothelial growth factor receptor 1
# as §3, §4, §5
# [17] = system: TT; experiment: In vitro cell experiment (MTT), TT; format: cell-based; conditions: 72 h, human thyroid carcinoma cells (RET C634W mutation)
# Experimental: as §1, §2
# [18] = target: KDR (Homo sapiens, UniProt P35968); experiment: In vitro enzyme experiment (ELISA), KDR; format: biochemical; conditions: Poly (Glu, Tyr)4:1 substrate, 5 μM ATP
# Chain of KDR (P35968 20-1356): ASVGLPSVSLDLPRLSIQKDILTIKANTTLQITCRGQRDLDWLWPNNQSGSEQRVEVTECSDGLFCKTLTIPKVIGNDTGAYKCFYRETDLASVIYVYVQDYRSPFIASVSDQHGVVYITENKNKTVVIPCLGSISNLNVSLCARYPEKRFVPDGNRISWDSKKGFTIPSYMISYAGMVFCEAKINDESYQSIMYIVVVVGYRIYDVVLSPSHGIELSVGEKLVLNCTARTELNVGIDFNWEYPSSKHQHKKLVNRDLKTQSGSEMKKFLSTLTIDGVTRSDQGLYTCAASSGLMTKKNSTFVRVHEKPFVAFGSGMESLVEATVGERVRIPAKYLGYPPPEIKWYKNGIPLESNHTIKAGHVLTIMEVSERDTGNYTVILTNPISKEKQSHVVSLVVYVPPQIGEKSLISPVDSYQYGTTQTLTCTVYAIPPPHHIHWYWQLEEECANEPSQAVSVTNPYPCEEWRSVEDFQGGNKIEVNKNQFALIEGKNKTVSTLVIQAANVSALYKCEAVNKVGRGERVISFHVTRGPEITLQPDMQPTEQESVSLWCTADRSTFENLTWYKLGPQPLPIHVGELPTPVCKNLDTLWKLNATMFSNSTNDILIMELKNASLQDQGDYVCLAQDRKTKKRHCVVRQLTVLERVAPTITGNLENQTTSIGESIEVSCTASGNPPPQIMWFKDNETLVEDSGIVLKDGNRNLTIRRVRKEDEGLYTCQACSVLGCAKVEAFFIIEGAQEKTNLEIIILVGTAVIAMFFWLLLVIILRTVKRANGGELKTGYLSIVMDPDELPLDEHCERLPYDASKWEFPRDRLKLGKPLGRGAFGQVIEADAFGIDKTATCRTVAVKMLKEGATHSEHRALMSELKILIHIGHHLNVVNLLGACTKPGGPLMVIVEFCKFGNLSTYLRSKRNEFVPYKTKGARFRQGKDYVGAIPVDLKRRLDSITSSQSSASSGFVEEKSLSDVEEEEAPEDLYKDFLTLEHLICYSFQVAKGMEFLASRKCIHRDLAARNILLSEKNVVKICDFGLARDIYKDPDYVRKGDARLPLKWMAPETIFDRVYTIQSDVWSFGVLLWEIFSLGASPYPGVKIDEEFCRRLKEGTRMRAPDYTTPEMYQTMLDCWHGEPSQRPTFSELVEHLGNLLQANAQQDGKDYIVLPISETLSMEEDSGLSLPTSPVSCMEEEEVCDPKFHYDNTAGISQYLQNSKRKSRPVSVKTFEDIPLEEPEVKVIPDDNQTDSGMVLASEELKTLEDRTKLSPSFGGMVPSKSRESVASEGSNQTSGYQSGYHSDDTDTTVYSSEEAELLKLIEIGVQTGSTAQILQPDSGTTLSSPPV
# Experimental: KDR: Human vascular endothelial growth factor receptor 2
# as §3, §4, §5
# [19] = target: FGFR-1 (Homo sapiens, UniProt P11362); experiment: In vitro enzyme experiment (ELISA), FGFR-1; format: biochemical; conditions: Poly (Glu, Tyr)4:1 substrate, 5 μM ATP
# Chain of FGFR-1 (P11362 22-822, species assumed): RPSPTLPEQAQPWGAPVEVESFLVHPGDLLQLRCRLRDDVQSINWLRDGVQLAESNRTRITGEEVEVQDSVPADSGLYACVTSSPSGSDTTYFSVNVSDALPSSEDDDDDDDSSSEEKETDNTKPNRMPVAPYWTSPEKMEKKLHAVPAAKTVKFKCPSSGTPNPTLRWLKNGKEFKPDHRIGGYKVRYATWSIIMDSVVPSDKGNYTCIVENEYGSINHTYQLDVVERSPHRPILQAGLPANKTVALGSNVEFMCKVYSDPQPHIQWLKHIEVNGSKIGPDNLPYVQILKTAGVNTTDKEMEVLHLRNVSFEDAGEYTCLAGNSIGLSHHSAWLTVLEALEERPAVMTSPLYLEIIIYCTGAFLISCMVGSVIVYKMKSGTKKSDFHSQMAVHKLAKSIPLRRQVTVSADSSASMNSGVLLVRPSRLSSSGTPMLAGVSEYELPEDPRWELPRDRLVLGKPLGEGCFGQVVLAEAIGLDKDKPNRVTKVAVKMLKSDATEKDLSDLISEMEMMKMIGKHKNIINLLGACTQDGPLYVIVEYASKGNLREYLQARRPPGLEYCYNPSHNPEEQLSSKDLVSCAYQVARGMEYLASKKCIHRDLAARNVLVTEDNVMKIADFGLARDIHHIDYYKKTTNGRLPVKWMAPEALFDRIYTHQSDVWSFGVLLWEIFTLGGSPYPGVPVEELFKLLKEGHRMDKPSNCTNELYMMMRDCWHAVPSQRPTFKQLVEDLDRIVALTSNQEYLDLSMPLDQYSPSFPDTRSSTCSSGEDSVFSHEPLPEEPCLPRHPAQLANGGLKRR
# Experimental: FGFR-1: Fibroblast growth factor receptor 1
# as §3, §4, §5
# [20] = system: Bel-7402; experiment: In vitro cell experiment (MTT), Bel-7402; format: cell-based; conditions: 72 h, human hepatoma carcinoma cells
# Experimental: as §1, §2
# [21] = target: RET (Homo sapiens, UniProt P07949); experiment: In vitro enzyme experiment (ELISA), RET; format: biochemical; conditions: Poly (Glu, Tyr)4:1 substrate, 5 μM ATP
# Experimental: RET: A receptor involved in thyroid cancer
# as §3, §4, §5
# [22] = system: A549; experiment: In vitro cell experiment (MTT), A549; format: cell-based; conditions: 72 h, human non-small-cell lung carcinoma cells (EGFR1 wildtype)
# Experimental: as §1, §2
# [23] = system: HCC827; experiment: In vitro cell experiment (MTT), HCC827; format: cell-based; conditions: 72 h, human non-small cell lung carcinoma (EGFR1 19 exon mutation)
# Experimental: as §1, §2
# [24] = system: Eca109; experiment: In vitro cell experiment (MTT), Eca109; format: cell-based; conditions: ECa-109, 72 h, human esophageal carcinoma cells
# Experimental: as §1, §2
# [25] = target: AXL (Homo sapiens, UniProt P30530); experiment: In vitro enzyme experiment (ELISA), AXL; format: biochemical; conditions: Poly (Glu, Tyr)4:1 substrate, 5 μM ATP
# Chain of AXL (P30530 473-894): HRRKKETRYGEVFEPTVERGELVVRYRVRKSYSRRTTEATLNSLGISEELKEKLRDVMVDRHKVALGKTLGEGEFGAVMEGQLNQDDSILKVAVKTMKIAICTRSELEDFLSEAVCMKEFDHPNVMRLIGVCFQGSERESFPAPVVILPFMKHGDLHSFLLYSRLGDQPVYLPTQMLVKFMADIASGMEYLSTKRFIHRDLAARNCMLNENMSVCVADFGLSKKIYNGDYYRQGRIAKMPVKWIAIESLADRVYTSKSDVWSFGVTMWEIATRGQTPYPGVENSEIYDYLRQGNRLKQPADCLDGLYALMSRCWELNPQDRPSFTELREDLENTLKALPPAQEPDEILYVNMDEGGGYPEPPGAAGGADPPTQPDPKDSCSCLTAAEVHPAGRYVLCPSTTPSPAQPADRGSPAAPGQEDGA
# Experimental: as §3, with “AXL: Anaplastic lymphoma kinase Methods: ELISA:” for “ELISA:”, “nm. The relative inhibition rate of the compound against tyrosine kinase protein was determined. According to the inhibition rates at different concentrations, IC50 was calculated by LOGIT method. The experiments were repeated three times, and the average of three IC50 values was the final index to evaluate the ability of inhibition.” for “nm.”
# [26] = target: EGFR (Homo sapiens, UniProt P00533); experiment: In vitro enzyme experiment (ELISA), EGFR; format: biochemical; conditions: Poly (Glu, Tyr)4:1 substrate, 5 μM ATP
# Chain of EGFR (P00533 25-1210): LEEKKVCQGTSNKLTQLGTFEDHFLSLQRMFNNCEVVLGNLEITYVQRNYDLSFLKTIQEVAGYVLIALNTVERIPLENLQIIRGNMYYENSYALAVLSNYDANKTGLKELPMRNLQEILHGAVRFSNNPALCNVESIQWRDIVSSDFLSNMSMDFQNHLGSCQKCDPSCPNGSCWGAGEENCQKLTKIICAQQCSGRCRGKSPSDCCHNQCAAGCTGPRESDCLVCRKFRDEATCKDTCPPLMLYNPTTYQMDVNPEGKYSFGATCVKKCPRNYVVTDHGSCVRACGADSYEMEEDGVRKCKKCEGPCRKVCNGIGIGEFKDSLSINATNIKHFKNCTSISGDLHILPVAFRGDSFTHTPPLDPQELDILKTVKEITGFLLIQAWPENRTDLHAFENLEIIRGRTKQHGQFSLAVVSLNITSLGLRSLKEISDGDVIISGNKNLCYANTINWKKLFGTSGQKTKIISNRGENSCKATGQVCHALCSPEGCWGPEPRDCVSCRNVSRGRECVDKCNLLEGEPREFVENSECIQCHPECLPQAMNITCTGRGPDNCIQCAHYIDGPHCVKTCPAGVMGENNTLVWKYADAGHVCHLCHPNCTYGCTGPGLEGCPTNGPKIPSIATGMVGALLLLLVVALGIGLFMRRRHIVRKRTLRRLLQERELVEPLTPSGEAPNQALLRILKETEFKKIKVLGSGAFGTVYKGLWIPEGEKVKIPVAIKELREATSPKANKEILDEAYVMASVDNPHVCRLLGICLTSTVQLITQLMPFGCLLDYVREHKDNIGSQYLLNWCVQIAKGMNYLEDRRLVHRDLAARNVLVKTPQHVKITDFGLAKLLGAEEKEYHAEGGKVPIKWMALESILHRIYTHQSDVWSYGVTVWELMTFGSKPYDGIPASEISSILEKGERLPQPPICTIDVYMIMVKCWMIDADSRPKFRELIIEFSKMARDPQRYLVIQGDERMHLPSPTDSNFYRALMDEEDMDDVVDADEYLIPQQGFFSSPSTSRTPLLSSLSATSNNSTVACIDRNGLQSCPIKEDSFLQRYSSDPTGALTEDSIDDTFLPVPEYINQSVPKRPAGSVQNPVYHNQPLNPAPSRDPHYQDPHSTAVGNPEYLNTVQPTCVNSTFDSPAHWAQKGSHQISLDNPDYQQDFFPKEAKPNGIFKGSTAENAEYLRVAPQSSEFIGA
# Experimental: EGFR: Human epidermal growth factor receptor 1
# as §3, §4, §5
structure (smiles),measurement,setting,value
"COc1cc2c(Nc3ccc(Br)cc3F)ncnc2cc1OCCCN1CCCC1 [Compound 19, 4-(4-bromo-2-fluoroanilino)-6-methoxy-7-(3-(pyrrolidine-1-yl)propoxy)quinazoline]",IC50,[1],1960 nM
same,IC50,[2],1090 nM
same,IC50,[3],220 nM
same,IC50,[4],38.2 nM
same,IC50,[5],113 nM
same,IC50,[6],6.3 nM
same,IC50,[7],112 nM
same,MTD,[8],250 to 500 mg/kg
same,IC50,[9],561 nM
same,IC50,[10],2060 nM
same,IC50,[11],21.2 nM
same,IC50,[12],1060 nM
same,IC50,[13],2760 nM
same,IC50,[14],4080 nM
same,IC50,[15],1660 nM
same,IC50,[16],25.6 nM
same,IC50,[17],110 nM
same,IC50,[18],10.6 nM
same,IC50,[19],15.7 nM
same,IC50,[20],3590 nM
same,IC50,[21],9.1 nM
same,IC50,[22],1430 nM
same,IC50,[23],0.1 nM
same,IC50,[24],4650 nM
same,IC50,[25],1550 nM
same,IC50,[26],66.3 nM
"COc1cc2c(Nc3ccc(Br)cc3F)ncnc2cc1OCCCCN(C)C [Compound 28, 4-(4-bromo-2-fluoroanilino)-6-methoxy-7-(4-(dimethylamino)-butoxy)quinazoline]",IC50,[1],1830 nM
same,IC50,[2],1610 nM
same,IC50,[3],278 nM
same,IC50,[4],66.6 nM
same,IC50,[5],156 nM
same,IC50,[6],9.3 nM
same,IC50,[7],108 nM
same,MTD,[8],250 to 500 mg/kg
same,IC50,[9],704 nM
same,IC50,[10],2270 nM
same,IC50,[11],20.1 nM
same,IC50,[12],1360 nM
same,IC50,[13],3960 nM
same,IC50,[14],4470 nM
same,IC50,[15],1470 nM
same,IC50,[16],27.4 nM
same,IC50,[17],118 nM
same,IC50,[18],18.4 nM
same,IC50,[19],17.8 nM
same,IC50,[20],4900 nM
same,IC50,[21],13.5 nM
same,IC50,[22],1920 nM
same,IC50,[23],0.1 nM
same,IC50,[24],4880 nM
same,IC50,[25],1470 nM
same,IC50,[26],90.4 nM
"COc1cc2c(Nc3ccc(Br)cc3F)ncnc2cc1OCCCN(C)C [Compound 29, 4-(4-bromo-2-fluoroanilino)-6-methoxy-7-(3-(dimethylamino)-propoxy)quinazoline]",IC50,[1],2560 nM
same,IC50,[2],1370 nM
same,IC50,[3],260 nM
same,IC50,[4],45.6 nM
same,IC50,[5],246 nM
same,IC50,[6],7.1 nM
same,IC50,[7],102 nM
same,MTD,[8],125 to 250 mg/kg
same,IC50,[9],652 nM
same,IC50,[10],2360 nM
same,IC50,[11],23.8 nM
same,IC50,[12],2740 nM
same,IC50,[13],4450 nM
same,IC50,[14],5150 nM
same,IC50,[15],2170 nM
same,IC50,[16],30.8 nM
same,IC50,[17],127 nM
same,IC50,[18],17.4 nM
same,IC50,[19],24.6 nM
same,IC50,[20],5880 nM
same,IC50,[21],13.4 nM
same,IC50,[22],2160 nM
same,IC50,[23],0.6 nM
same,IC50,[24],5420 nM
same,IC50,[25],1830 nM
same,IC50,[26],127 nM
"COc1cc2c(Nc3ccc(Br)cc3F)ncnc2cc1OCCCCN1CCCC1 [Compound 30, 4-(4-bromo-2-fluoroanilino)-6-methoxy-7-(4-(pyrrolidin-1-yl)butoxy)quinazoline]",IC50,[1],2500 nM
same,IC50,[2],1490 nM
same,IC50,[3],261 nM
same,IC50,[4],43.2 nM
same,IC50,[5],247 nM
same,IC50,[6],7 nM
same,IC50,[7],196 nM
same,MTD,[8],250 to 500 mg/kg
same,IC50,[9],775 nM
same,IC50,[10],2880 nM
same,IC50,[11],27.5 nM
same,IC50,[12],1570 nM
same,IC50,[13],4190 nM
same,IC50,[14],5150 nM
same,IC50,[15],2190 nM
same,IC50,[16],25.9 nM
same,IC50,[17],126 nM
same,IC50,[18],15.7 nM
same,IC50,[19],25.8 nM
same,IC50,[20],4570 nM
same,IC50,[21],14.6 nM
same,IC50,[22],1510 nM
same,IC50,[23],0.5 nM
same,IC50,[24],5520 nM
same,IC50,[25],2010 nM
same,IC50,[26],118 nM

# Source: patent US10421754B2, “Quinazoline derivative” (CSPC ZHONGQI PHARMACEUTICAL TECHNOLOGY (SHIJIAZHUANG) CO., …, priority 2014, dated 2019)
